# Data taken from PMC6680510, “Benzotriazine Di-Oxide Prodrugs for Exploiting Hypoxia and Low Extracellular pH in Tumors” (Molecules, 2019).
# Where two headings read alike, the source gives them in different places.
# What was measured:
# [1] = tested on: SiHa cells; test: IC50 assay (inhibition of proliferation, 4 h exposure, SRB); conditions: SiHa; for IC50: Homo sapiens, 4 h
# Outline: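 Cells exposed to compound for 4 h in titrated medium, then washed and regrown 5 days under standard conditions (oxia, pHe 7.4). Growth read by sulforhodamine B staining; IC50 from 4-parameter logistic regression of duplicate cultures.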
# [2] = tested on: FaDu cells; test: as above; assay type: cell-based; conditions: for IC50: Homo sapiens, 4 h
# [3] = tested on: UT-SCC-74B cells; test: as above; assay type: cell-based; conditions: UT-SCC-74B, UT-SCC-74B; for IC50: Homo sapiens, 4 h
# Protocol: Cells were seeded in 96-well plates (SiHa or FaDu 1500 cells/well, UT-SCC-74B 800 cells/well) in 100 μL. After incubation for 2 h, the drugs were added in 50 μL of the same titrated medium at 3× the final concentration to duplicate the wells. After a further 4 h the plates were checked for drug precipitation using a phase contrast microscope, then drugs were removed by aspirating and washing with the standard (pH 7.4) medium, then aspirating again and adding 150 μL of the medium. Cultures were then grown for 5 days before staining with sulphorhodamine B and measuring absorbance, with the estimation of IC50 values using 4-parameter logistic regression, as previously carried out.
# The medium and plasticware was equilibrated in the chamber for 3 days prior to use. In the anoxia experiments, FaDu cells were plated in poly-L-lysine coated plates (Corning Cat # 356461) to improve attachment. […]
# Footnotes: a Number of experiments. b Anoxic cytotoxicity ratio = oxic IC50/anoxic IC50. c pH
# cytotoxicity ratio = IC50 at pHe 7.4/ IC50 at pHe 6.5. d Overall ratio = oxic IC50 pHe 7.4 / anoxic IC50 pHe
# 6.5. Values are means and errors are SEM. For ratios, the errors are root mean square SEM. […]
# [4] = tested on: SiHa cells; test: IC50 assay modified for chronic hypoxia (oxia, hypoxia, anoxia); assay type: cell-based; conditions: for IC50: Homo sapiens
# Protocol: There are relatively few viable cells in tumors at O2 concentrations as low as in the above anoxic experiments. In addition, extensive changes in gene expression occur under chronic exposure to intermediate O2 concentrations (chronic hypoxia), including the expression of proteins that regulate pHi. […] Therefore, oxic and anoxic exposures were also tested in these same experiments. The 24 h adaptation to hypoxia had little effect on the subsequent growth of the cultures at either pHe value (Figure S6).
# To minimize problems with poor cell attachment under chronic hypoxia, the drugs were added from a 3-fold dilution series made in a separate plate, rather than by serial dilution in the plates containing the cells. In addition, the drugs were removed after the 4 h exposure by centrifuging the plates (200g × 5 min) prior to each aspiration. The same modifications were used for the oxic drug exposures in these experiments.
# [5] = tested on: SiHa and SiHa/POR cells; test: IC50 in SiHa versus SiHa/POR cultures under anoxia; assay type: cell-based; conditions: 4 h under anoxia, pHe 7.4
# Protocol: The lack of effect of POR over-expression on the reductive metabolism of the BTO acids in intact cells led us to compare the cytotoxicities of SN30000 (2), 4a, and 7a in SiHa/POR, and the parental line, under anoxia (Figure 6).
# Drug exposure was for 4 h under anoxia, at pHe 7.4, with regrowth under aerobic conditions for 5 days before staining with SRB. Values are means and SEM for the two experiments, each with triplicate cultures at each drug concentration. TEXT PRINTED IN THE PICTURE: Cmpd 2: Ratio 6.75 ± 0.20 | Cmpd 4a: Ratio 3.40 ± 0.22 | Cmpd 7a: Ratio 2.67 ± 0.46
# [6] = tested on: SiHa and FaDu cells; test: IC50 assay, summary statements over both cell lines; assay type: cell-based; conditions: read-out: Potency (IC50) under anoxia at pHe 6.5
# [7] = pulse radiolysis, redox indicator MV^2+; cited from earlier work
# [8] = design: method as in PMID 24737463; conditions: cited from earlier work
# [9] = tested on: MDCK-II cells with forced expression of BCRP or Pgp; test: IC50 under anoxia in cells with forced expression of efflux transporters; conditions: MDCK-II cell lines under anoxia, preliminary experiments
# [10] = tested on: SiHa cells; test: Cellular uptake in stirred aerobic single cell suspensions (HPLC, 3H-mannitol correction)
# [11] = design: method as in PMID 28848445; conditions: cited from earlier work
compound,measurement,setting,value
"[O-][n+]1nc(CCCN2CCOCC2)[n+]([O-])c2cc3c(cc21)CCC3 [Compound 2, SN30000, reference compound]",IC50,"[1]; read-out: Anoxic IC50, SiHa, pHe 6.5, 4 h, anoxic",5.52 ± 2.01 µM
same,IC50,"[1]; read-out: Anoxic IC50, SiHa, pHe 7.4, 4 h, anoxic",2.87 ± 0.23 µM
same,IC50,"[1]; read-out: Oxic IC50, SiHa, pHe 6.5, 4 h, oxic",253 ± 31 µM
same,IC50,"[1]; read-out: Oxic IC50, SiHa, pHe 7.4, 4 h, oxic",292 ± 15 µM
same,TMR (overall TME ratio = oxic IC50 pHe 7.4/anoxic IC50 pHe 6.5),[1],53 ± 19
same,PCR Anoxic (IC50 at pHe 7.4/IC50 at pHe 6.5),[1]; anoxic,0.52 ± 0.19
same,PCR oxic (IC50 at pHe 7.4/IC50 at pHe 6.5),[1]; oxic,1.15 ± 0.15
same,ACR (anoxic cytotoxicity ratio = oxic IC50/anoxic IC50),[1]; pHe 6.5,46 ± 18.0
same,ACR (anoxic cytotoxicity ratio = oxic IC50/anoxic IC50),[1]; pHe 7.4,101 ± 10
same,PCR (pH cytotoxicity ratio),"[1]; representative experiment (Figure 3), oxia and anoxia",little or no dependence on pHe
same,ACR (anoxia cytotoxicity ratio),"[1]; representative experiment (Figure 3), pHe 7.4 and 6.5",approximately 140
same,TMR (oxic IC50 pHe 7.4/anoxic IC50 pHe 6.5),[2],29.8 ± 5.7
same,IC50,"[2]; pHe 6.5, 4 h, anoxic, read-out: Anoxic IC50",8.63 ± 1.55 µM
same,IC50,"[2]; pHe 6.5, 4 h, oxic, read-out: Oxic IC50",277 ± 15 µM
same,IC50,"[2]; pHe 7.4, 4 h, anoxic, read-out: Anoxic IC50",4.16 ± 0.35 µM
same,IC50,"[2]; pHe 7.4, 4 h, oxic, read-out: Oxic IC50",258 ± 15 µM
same,PCR Anoxic (IC50 at pHe 7.4/IC50 at pHe 6.5),[2]; anoxic,0.48 ± 0.10
same,PCR oxic (IC50 at pHe 7.4/IC50 at pHe 6.5),[2]; oxic,0.93 ± 0.08
same,ACR (oxic IC50/anoxic IC50),[2]; pHe 6.5,32.1 ± 6.04
same,ACR (oxic IC50/anoxic IC50),[2]; pHe 7.4,62.0 ± 6.34
same,IC50,"[3]; pHe 6.5, 4 h, 20% O2, read-out: Oxic IC50",190 ± 42 µM
same,IC50,"[3]; pHe 6.5, 4 h, <0.01% O2, read-out: Anoxic IC50",6.29 ± 1.79 µM
same,IC50,"[3]; pHe 7.4, 4 h, 20% O2, read-out: Oxic IC50",477 ± 65 µM
same,IC50,"[3]; pHe 7.4, 4 h, <0.01% O2, read-out: Anoxic IC50",5.92 ± 2.42 µM
same,TME ratio (oxic IC50 pHe 7.4/anoxic IC50 pHe 6.5),[3],75.8 ± 23.9
same,PCR Anoxic (IC50 at pHe 7.4/IC50 at pHe 6.5),[3]; anoxic,0.94± 0.47
same,PCR oxic (IC50 at pHe 7.4/IC50 at pHe 6.5),[3]; oxic,2.51 ± 0.65
same,ACR (oxic IC50/anoxic IC50),[3]; pHe 6.5,30.2 ± 10.9
same,ACR (oxic IC50/anoxic IC50),[3]; pHe 7.4,80.6 ± 34.7
same,PCR (IC50 for pHe 7.4/IC50 for pHe 6.5),[4]; 0.2% O2,1.76 ± 0.43
same,HCR,"[4]; 0.2% O2, both pHe values",approximately 20
same,PCR (IC50 for pHe 7.4/IC50 for pHe 6.5),[4]; 20% O2,1.95 ± 0.66
same,PCR (IC50 for pHe 7.4/IC50 for pHe 6.5),[4]; <0.01% O2,0.84 ± 0.15
same,IC50,"[4]; 0.2% O2 (24 h before and during 4 h exposure), pHe 6.5",9.88 ± 2.34 µM
same,IC50,"[4]; 0.2% O2 (24 h before and during 4 h exposure), pHe 7.4",17.4 ± 1.02 µM
same,IC50,"[4]; 4 h, 20% O2, pHe 6.5, 4 h",207 ± 69 µM
same,IC50,"[4]; 4 h, 20% O2, pHe 7.4, 4 h",404 ± 21 µM
same,IC50,"[4]; 4 h, <0.01% O2, pHe 6.5, 4 h",3.07 ± 0.38 µM
same,IC50,"[4]; 4 h, <0.01% O2, pHe 7.4, 4 h",2.59 ± 0.35 µM
same,ACR (IC50 for 20% O2/IC50 for <0.01% O2),[4]; pHe 6.5,67 ± 24
same,HCR (IC50 for 20% O2/IC50 for 0.2% O2),[4]; pHe 6.5,20.1 ± 8.6
same,ACR (IC50 for 20% O2/IC50 for <0.01% O2),[4]; pHe 7.4,156 ± 23
same,HCR (IC50 for 20% O2/IC50 for 0.2% O2),[4]; pHe 7.4,23.2 ± 1.8
same,IC50 ratio SiHa / SiHa/POR (fold lower IC50 in POR cell line),[5],6.75 ± 0.20
same,IC50 ratio SiHa / SiHa/POR (fold lower IC50 in POR cell line),[5]; listed as SN30000,6.75
same,IC50,[6],2.9 to 8.6 µM
same,E^0′ one-electron reduction potential,[7],−401 ± 8 [MV^2+] ^g mV
same,pKa of the radical anion,[8],5.48 ± 0.26
same,Effect of overexpression of BCRP or Pgp efflux transporters on sensitivity,[9],no effect
same,Uptake (Ci/Ce) at 4 °C relative to 37 °C,"[10]; SiHa cell suspensions, data not shown",minor increase
same,Ci ratio (Ci at pHe 6.5/Ci at pHe 7.4),"[10]; aerobic SiHa suspensions, 5 min",1.09 ± 0.09 fold
same,Ci ratio (Ci at pHe 6.5/Ci at pHe 7.4),"[10]; aerobic SiHa suspensions, 60 min",0.95 ± 0.07 fold
same,"Ci/Ce, pHe 6.5 Obs 5 min","[10]; aerobic SiHa suspensions, pHe 6.5, 5 min",2.75 ± 0.07
same,"Ci/Ce, pHe 6.5 Obs 60 min","[10]; aerobic SiHa suspensions, pHe 6.5, 60 min",2.37 ± 0.02
same,"Ci/Ce, pHe 7.4 Obs 5 min","[10]; aerobic SiHa suspensions, pHe 7.4, 5 min",2.48± 0.27
same,"Ci/Ce, pHe 7.4 Obs 60 min","[10]; aerobic SiHa suspensions, pHe 7.4, 60 min",2.49 ± 0.05
"O=C(O)CCc1nc2cc3c(cc2[n+]([O-])n1)CCC3 [Compound 15d, 3-(2-Carboxyethyl)-7,8-dihydro-6H-indeno[5,6-e][1,2,4]triazine 1-Oxide]",Protein bound in mouse plasma,[11],> 90%
